Measurements from ChEMBL document CHEMBL4813954, “Dibenzodiazepinone-type muscarinic receptor antagonists conjugated to basic peptides: Impact of the linker moiety and unnatural amino acids on M2R selectivity” (Eur J Med Chem, 2021).

Tests used:
[1] = target: T1, Muscarinic acetylcholine receptor M1 (Homo sapiens, UniProt P11229); test: Displacement of [3H]-NMS from human muscarinic M1 receptor expressed in CHO cell membranes assessed as inhibition constant by radioligand competition analysis; design: species or system Cell membrane
T1 sequence (P11229 whole entry): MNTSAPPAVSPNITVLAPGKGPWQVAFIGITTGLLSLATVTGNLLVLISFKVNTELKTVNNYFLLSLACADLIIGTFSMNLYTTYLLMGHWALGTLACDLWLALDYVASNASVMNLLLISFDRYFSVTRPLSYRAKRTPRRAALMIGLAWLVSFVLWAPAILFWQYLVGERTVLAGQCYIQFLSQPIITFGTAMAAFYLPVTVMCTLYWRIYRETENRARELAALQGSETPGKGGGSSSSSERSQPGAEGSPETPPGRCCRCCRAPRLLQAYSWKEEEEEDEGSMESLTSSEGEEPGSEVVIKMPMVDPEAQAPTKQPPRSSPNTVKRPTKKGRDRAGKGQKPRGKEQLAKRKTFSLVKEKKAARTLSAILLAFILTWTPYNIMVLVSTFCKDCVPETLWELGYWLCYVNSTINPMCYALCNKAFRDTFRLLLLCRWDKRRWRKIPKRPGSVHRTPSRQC

[2] = target: T2, Muscarinic acetylcholine receptor M2 (Homo sapiens, UniProt P08172); test: Displacement of [3H]-NMS from human muscarinic M2 receptor expressed in CHO cell membranes assessed as inhibition constant by radioligand competition analysis; design: species or system Cell membrane
T2 sequence (P08172 whole entry): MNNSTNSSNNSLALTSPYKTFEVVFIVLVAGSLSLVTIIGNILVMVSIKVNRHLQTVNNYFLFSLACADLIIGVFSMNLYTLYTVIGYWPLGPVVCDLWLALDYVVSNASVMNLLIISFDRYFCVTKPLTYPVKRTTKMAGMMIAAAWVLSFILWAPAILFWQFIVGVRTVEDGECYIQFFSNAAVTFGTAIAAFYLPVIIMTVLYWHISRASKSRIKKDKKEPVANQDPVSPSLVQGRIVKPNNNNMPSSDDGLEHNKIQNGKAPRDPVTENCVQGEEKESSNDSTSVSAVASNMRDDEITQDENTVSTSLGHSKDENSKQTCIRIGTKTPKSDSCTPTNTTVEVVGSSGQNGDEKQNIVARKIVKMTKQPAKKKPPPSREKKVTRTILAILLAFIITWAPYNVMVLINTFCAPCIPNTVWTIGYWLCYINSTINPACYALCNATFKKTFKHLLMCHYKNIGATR

[3] = target: T3, Muscarinic acetylcholine receptor M4 (Homo sapiens, UniProt P08173); test: Displacement of [3H]-NMS from human muscarinic M4 receptor expressed in CHO cell membranes assessed as inhibition constant by radioligand competition analysis; design: species or system Cell membrane
T3 sequence (P08173 whole entry): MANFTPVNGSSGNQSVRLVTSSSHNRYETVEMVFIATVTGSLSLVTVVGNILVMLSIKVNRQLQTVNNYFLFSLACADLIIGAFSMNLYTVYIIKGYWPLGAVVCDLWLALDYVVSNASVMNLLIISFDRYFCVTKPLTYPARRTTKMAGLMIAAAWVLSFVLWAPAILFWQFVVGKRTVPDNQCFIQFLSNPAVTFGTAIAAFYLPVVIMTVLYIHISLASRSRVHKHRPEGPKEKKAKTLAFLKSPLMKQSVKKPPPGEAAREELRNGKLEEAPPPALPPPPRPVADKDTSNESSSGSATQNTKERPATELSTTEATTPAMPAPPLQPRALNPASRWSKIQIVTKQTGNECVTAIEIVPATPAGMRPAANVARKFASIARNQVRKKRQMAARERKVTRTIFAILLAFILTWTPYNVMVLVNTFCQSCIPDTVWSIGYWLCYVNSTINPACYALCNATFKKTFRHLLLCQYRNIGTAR

[4] = target: Muscarinic acetylcholine receptor M2 and M5 (Homo sapiens) (UniProt P08172+P08912); test: Selectivity index, […] for displacement of [3H]NMS from human recombinant muscarinic receptor M5 expressed in CHO cell membranes […] for displacement of [3H]NMS from human recombinant muscarinic receptor M2 expressed in CHO cell membranes
[5] = target: T4, Muscarinic acetylcholine receptor M5 (Homo sapiens, UniProt P08912); test: Displacement of [3H]-NMS from human muscarinic M5 receptor expressed in CHO cell membranes assessed as inhibition constant by radioligand competition analysis; design: species or system Cell membrane
T4 sequence (P08912 whole entry): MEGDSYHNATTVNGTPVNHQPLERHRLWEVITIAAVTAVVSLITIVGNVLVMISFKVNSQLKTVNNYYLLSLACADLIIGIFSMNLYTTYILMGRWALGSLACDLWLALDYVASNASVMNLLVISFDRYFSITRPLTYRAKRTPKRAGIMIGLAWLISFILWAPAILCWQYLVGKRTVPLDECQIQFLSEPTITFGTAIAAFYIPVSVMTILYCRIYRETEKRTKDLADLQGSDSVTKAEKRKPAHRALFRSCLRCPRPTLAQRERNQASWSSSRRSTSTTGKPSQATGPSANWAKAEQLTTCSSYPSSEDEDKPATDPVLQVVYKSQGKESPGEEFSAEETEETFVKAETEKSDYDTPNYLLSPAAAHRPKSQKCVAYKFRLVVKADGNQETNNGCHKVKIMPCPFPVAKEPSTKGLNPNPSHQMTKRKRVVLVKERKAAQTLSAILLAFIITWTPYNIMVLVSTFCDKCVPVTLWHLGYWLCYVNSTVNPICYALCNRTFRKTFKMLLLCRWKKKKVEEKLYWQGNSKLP

[6] = target: Muscarinic acetylcholine receptor M3 (Homo sapiens, UniProt P20309); test: Displacement of [3H]-NMS from human muscarinic M3 receptor expressed in CHO cell membranes assessed as inhibition constant by radioligand competition analysis; design: species or system Cell membrane
[7] = target: Muscarinic acetylcholine receptors; M2 & M3 (Homo sapiens) (UniProt P20309+P08172); test: Selectivity index, […] for displacement of [3H]NMS from human recombinant muscarinic receptor M3 expressed in CHO cell membranes […] for displacement of [3H]NMS from human recombinant muscarinic receptor M2 expressed in CHO cell membranes

Muscarinic acetylcholine receptor M3, sequence (P20309 whole entry): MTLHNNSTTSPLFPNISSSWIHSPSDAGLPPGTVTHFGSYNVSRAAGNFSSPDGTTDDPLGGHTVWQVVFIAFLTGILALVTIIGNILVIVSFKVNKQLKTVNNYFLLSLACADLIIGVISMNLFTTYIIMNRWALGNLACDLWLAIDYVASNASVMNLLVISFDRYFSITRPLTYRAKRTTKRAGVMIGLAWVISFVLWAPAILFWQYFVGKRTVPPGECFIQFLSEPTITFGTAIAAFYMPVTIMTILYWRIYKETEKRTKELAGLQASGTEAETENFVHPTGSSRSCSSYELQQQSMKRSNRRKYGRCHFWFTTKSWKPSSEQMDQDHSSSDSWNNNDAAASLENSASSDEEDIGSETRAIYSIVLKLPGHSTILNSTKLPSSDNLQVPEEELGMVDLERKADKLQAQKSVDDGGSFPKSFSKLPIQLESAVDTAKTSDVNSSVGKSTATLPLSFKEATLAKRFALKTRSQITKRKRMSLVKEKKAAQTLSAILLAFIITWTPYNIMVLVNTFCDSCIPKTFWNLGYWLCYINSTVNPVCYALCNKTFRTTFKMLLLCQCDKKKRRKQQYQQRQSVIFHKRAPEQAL

| Compound | Ki [1] | Ki [2] | Ki [3] | Selectivity Index [4] | Ki [5] | Ki [6] | Selectivity Index [7] |
| --- | --- | --- | --- | --- | --- | --- | --- |
| N=C(N)NCCC[C@@H](N)C(=O)NCCN1CCN(CCCCC2CCN(CC(=O)N3c4ccccc4NC(=O)c4ccccc43)CC2)CC1 | 0.692 nM | 0.229 nM | 1.82 nM | – | – | – | – |
| Nc1ccccc1C(=O)N1CCC(N2CCC(Cc3ccc(S(=O)(=O)c4cccc(Cl)c4)cc3)CC2)CC1 | 324 nM | – | 91.2 nM | – | – | – | – |
| NCCN1CCN(CCC(=O)NC2CCN(CC(=O)N3c4ccccc4NC(=O)c4ccccc43)CC2)CC1 | 363 nM | 23.4 nM | 363 nM | – | – | – | – |
| N=C(N)NCCC[C@H](N)C(=O)NCCN1CCN(CCCCC2CCN(CC(=O)N3c4ccccc4NC(=O)c4ccccc43)CC2)CC1 | 1.35 nM | 0.102 nM | 0.794 nM | – | – | – | – |
| NCCN1CCN(CCCC2CCN(CC(=O)N3c4ccccc4NC(=O)c4ccccc43)CC2)CC1 | 44.7 nM | 3.55 nM | 18.6 nM | – | – | – | – |
| CCN(CC)CCCCC1CCN(CC(=O)N2c3ccccc3NC(=O)c3ccccc32)CC1 | – | – | – | – | – | – | 37 |
| NC1CCN(CCCCC2CCN(CC(=O)N3c4ccccc4NC(=O)c4ccccc43)CC2)CC1 | 2.57 nM | 0.186 nM | 2.51 nM | – | – | – | – |

Continued, values first:

| Ki [1] | Ki [2] | Ki [3] | Selectivity Index [4] | Ki [5] | Ki [6] | Selectivity Index [7] | Compound |
| --- | --- | --- | --- | --- | --- | --- | --- |
| 724 nM | 155 nM | 1510 nM | – | – | – | – | NCCN1CCN(C(=O)CCCC2CCN(CC(=O)N3c4ccccc4NC(=O)c4ccccc43)CC2)CC1 |
| – | 6460 nM | – | – | – | – | – | CCCN[C@@H](CCCNC(=N)N)C(=O)N[C@@H](CCCCN)C(=O)NC(C)=O |
| 2.51 nM | 0.1 nM | 2 nM | 4900 | 398 nM | 100 nM | 1800 | CC(=O)N[C@@H](CCCCN)C(=O)N[C@@H](C)C(=O)N[C@@H](CCCNC(=N)N)C(=O)NCCN1CCN(CCCCC2CCN(CC(=O)N3c4ccccc4NC(=O)c4ccccc43)CC2)CC1 |
| 7.94 nM | 0.794 nM | 2.51 nM | 230 | 158 nM | 63.1 nM | 79 | CCC(=O)NCCNC(=O)CCc1cn(CCCCC2CCN(CC(=O)N3c4ccccc4NC(=O)c4ccccc43)CC2)cn1 |
| 39.8 nM | 1 nM | 63.1 nM | 400 | 316 nM | 6310 nM | 6500 | CC(=O)N[C@@H](CCCCN)C(=O)N[C@@H](CCCNC(=N)N)C(=O)NCCCCC1CCN(CC(=O)N2c3ccccc3NC(=O)c3ccccc32)CC1 |
| – | 6170 nM | – | – | – | – | – | CCCN[C@@H](CCCNC(=N)N)C(=O)N[C@@H](C)C(=O)N[C@@H](CCCCN)C(=O)NC(C)=O |
| 100 nM | – | 39.8 nM | 6.2 | 126 nM | 1260 nM | 56 | CC(=O)N[C@@H](Cc1c[nH]c2ccccc12)C(=O)N[C@@H](C)C(=O)N[C@@H](Cc1ccc(O)cc1)C(=O)NCCCCC1CCN(CC(=O)N2c3ccccc3NC(=O)c3ccccc32)CC1 |
| 11.7 nM | 0.589 nM | 3.98 nM | 1300 | 676 nM | 251 nM | > 160 | N=C(N)NCCC[C@@H](N)C(=O)NCCN1CCN(CCCC2CCN(CC(=O)N3c4ccccc4NC(=O)c4ccccc43)CC2)CC1 |
| 2950 nM | 1150 nM | 1100 nM | – | – | – | – | NCC(=O)NC1CCN(CC(=O)N2c3ccccc3NC(=O)c3ccccc32)CC1 |
| – | 4470 nM | – | – | – | – | – | CCCN[C@@H](CCNC(=N)N)C(=O)N[C@@H](CCCCN)C(=O)NC(C)=O |
| 47900 nM | 2450 nM | 25700 nM | – | – | – | – | NCCN1CCN(CC(=O)NC2CCN(CC(=O)N3c4ccccc4NC(=O)c4ccccc43)CC2)CC1 |
